Experimental data reported in ChEMBL document CHEMBL4765432, “Design and synthesis of novel Flavone-based histone deacetylase inhibitors antagonizing activation of STAT3 in breast cancer” (Eur J Med Chem, 2020).
Active and inactive are the calls of the source. The calls are words filed in the database; no cut-off is given here.

Key:
[1] = target: Histone deacetylase 5 (Homo sapiens, UniProt Q9UQL6); experiment: Inhibition of recombinant human N-terminal GST-tagged HDAC-5 (617 to end residues) expressed in baculovirus infected in Sf9 cells using Boc-Lys (q-Ac)-AMC as substrate incubated for 10 mins followed by substrate addition and measured after 30 mins by fluorescence based assay
Chain of Histone deacetylase 5 (Q9UQL6 whole entry): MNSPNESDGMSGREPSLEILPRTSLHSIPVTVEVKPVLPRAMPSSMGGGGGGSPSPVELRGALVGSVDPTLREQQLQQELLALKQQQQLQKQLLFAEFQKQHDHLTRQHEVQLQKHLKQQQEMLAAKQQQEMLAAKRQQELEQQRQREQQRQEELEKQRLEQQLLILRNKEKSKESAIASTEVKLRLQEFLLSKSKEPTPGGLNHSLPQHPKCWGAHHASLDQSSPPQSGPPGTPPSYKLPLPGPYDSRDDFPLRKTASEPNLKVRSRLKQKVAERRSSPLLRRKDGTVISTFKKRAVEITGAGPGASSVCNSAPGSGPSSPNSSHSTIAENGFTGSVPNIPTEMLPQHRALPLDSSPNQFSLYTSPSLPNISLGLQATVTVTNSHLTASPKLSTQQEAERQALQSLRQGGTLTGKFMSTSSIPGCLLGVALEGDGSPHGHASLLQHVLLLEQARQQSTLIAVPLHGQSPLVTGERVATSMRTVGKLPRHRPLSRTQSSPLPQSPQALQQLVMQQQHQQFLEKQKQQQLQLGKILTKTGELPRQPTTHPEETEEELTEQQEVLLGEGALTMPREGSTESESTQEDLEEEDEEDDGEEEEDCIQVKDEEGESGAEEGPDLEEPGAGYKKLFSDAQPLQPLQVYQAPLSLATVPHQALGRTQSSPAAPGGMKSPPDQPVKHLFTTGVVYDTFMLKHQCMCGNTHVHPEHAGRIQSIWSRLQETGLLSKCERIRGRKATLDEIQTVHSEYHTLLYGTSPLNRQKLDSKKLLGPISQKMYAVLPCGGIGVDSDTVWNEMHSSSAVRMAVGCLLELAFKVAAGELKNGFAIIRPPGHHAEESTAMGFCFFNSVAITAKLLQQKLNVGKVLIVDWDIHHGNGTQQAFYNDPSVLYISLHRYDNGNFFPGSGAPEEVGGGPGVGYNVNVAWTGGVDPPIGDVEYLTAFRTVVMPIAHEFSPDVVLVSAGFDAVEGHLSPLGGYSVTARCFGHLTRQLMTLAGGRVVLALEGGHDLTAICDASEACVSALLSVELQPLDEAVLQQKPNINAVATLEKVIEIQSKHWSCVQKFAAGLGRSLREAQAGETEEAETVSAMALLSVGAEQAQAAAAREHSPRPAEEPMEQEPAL

[2] = target: Protein deacetylase HDAC6 (Homo sapiens, UniProt Q9UBN7); experiment: Inhibition of recombinant human N-terminal GST-tagged full length HDAC-6 expressed in baculovirus infected in Sf9 cells using Boc-Lys (q-Ac)-AMC as substrate incubated for 10 mins followed by substrate addition and measured after 30 mins by fluorescence based assay
[3] = target: Histone deacetylase 9 (Homo sapiens, UniProt Q9UKV0); experiment: Inhibition of recombinant human N-terminal GST-tagged HDAC-9 (548 to end residues) expressed in baculovirus infected in Sf9 cells using Boc-Lys (q-Ac)-AMC as substrate incubated for 10 mins followed by substrate addition and measured after 30 mins by fluorescence based assay
Chain of Histone deacetylase 9 (Q9UKV0 whole entry, the tested form may be a part): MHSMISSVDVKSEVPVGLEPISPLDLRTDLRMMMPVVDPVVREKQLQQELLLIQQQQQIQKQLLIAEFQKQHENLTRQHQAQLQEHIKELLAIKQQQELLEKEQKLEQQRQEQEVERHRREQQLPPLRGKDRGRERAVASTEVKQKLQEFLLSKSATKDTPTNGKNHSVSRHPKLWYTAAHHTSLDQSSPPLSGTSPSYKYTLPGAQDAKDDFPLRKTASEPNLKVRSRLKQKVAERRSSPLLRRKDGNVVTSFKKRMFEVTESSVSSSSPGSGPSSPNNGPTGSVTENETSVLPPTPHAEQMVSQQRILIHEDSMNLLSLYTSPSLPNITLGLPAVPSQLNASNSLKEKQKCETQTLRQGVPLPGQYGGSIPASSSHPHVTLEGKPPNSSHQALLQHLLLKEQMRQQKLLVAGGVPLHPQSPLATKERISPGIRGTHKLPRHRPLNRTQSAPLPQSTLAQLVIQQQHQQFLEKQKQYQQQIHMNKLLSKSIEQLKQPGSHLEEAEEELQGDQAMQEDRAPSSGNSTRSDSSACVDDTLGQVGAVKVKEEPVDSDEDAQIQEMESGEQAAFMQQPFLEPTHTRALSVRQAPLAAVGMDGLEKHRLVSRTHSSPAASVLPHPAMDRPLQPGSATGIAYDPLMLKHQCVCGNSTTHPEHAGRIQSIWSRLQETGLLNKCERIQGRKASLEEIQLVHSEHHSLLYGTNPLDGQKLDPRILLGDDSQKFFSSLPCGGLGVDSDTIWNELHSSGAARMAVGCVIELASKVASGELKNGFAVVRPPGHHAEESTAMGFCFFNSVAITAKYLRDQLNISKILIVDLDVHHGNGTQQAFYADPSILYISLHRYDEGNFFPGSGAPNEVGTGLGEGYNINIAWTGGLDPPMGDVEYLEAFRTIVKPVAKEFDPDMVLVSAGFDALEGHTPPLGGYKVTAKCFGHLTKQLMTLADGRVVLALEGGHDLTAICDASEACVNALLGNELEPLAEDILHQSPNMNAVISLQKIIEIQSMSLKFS

[4] = target: Polyamine deacetylase HDAC10 (Homo sapiens, UniProt Q969S8); experiment: Inhibition of recombinant human N-terminal GST-tagged HDAC-10 (1 to 482 residues) expressed in baculovirus infected in Sf9 cells using Boc-Lys (q-Ac)-AMC as substrate incubated for 10 mins followed by substrate addition and measured after 30 mins by fluorescence based assay
Chain of Polyamine deacetylase HDAC10 (Q969S8 whole entry, the tested form may be a part): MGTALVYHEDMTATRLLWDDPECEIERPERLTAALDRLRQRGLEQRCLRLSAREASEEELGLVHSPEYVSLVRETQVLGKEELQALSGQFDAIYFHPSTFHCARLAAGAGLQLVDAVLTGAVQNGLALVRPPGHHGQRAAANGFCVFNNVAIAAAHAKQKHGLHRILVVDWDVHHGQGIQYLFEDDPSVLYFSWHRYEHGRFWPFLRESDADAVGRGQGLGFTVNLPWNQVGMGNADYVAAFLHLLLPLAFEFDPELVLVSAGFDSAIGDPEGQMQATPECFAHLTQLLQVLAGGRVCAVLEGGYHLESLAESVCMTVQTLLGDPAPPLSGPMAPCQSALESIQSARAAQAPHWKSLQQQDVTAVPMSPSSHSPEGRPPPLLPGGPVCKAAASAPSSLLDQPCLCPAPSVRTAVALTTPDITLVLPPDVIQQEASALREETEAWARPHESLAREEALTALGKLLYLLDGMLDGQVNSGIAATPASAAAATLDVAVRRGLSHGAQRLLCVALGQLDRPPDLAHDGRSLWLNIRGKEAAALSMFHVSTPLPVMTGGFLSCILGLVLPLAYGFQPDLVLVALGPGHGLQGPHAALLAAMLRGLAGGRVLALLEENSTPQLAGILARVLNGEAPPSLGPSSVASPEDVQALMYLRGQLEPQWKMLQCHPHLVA

[5] = test system: MDA-MB-231; experiment: Cytotoxicity against human MDA-MB-231 cells assessed as reduction in cell viability incubated for 48 hrs by MTT assay; assay type: functional, cell-based; conditions: MDA-MB-231, 48 h
[6] = test system: BT-549; experiment: Cytotoxicity against human BT-549 cells assessed as reduction in cell viability incubated for 48 hrs by MTT assay; assay type: functional, cell-based; conditions: BT-549, 48 h
[7] = test system: SUM-159-PT; experiment: Cytotoxicity against human SUM159PT cells assessed as reduction in cell viability incubated for 48 hrs by MTT assay; assay type: functional, cell-based
[8] = test system: T47D; experiment: Cytotoxicity against human T47D cells assessed as reduction in cell viability incubated for 48 hrs by MTT assay; assay type: functional, cell-based
[9] = test system: HepG2; experiment: Cytotoxicity against human HepG2 cells assessed as reduction in cell viability incubated for 48 hrs by MTT assay; assay type: functional, cell-based; conditions: HepG2, 48 h
[10] = test system: Bel-7402; experiment: Cytotoxicity against human Bel-7402 cells assessed as reduction in cell viability incubated for 48 hrs by MTT assay; assay type: functional, cell-based; conditions: Bel-7402, 48 h
[11] = test system: NCI-H460; experiment: Cytotoxicity against human NCI-H460 cells assessed as reduction in cell viability incubated for 48 hrs by MTT assay; assay type: functional, cell-based; conditions: NCI-H460, 48 h
[12] = test system: NCI-H1581; experiment: Cytotoxicity against human NCI-1581 cells assessed as reduction in cell viability incubated for 48 hrs by MTT assay; assay type: functional, cell-based; conditions: NCI-H1581, 48 h
[13] = test system: PC-3; experiment: Cytotoxicity against human PC-3 cells assessed as reduction in cell viability incubated for 48 hrs by MTT assay; assay type: functional, cell-based; conditions: PC-3, 48 h
[14] = test system: HEK-293T; experiment: Cytotoxicity against human HEK293T cells assessed as reduction in cell viability incubated for 48 hrs by MTT assay; assay type: ADME, cell-based
[15] = test system: MDA-MB-468; experiment: Potency index, ratio of IC50 of SAHA to IC50 of compound for cytotoxicity against human MDA-MB-468 cells assessed as reduction in cell viability incubated for 48 hrs by MTT assay; assay type: functional
[16] = test system: BT-549; experiment: Potency index, ratio of IC50 of SAHA to IC50 of compound for cytotoxicity against human BT-549 cells assessed as reduction in cell viability incubated for 48 hrs by MTT assay; assay type: functional
[17] = test system: MDA-MB-231; experiment: Induction of cell cycle arrest in human MDA-MB-231 cells assessed as G0/G1 phase accumulation at 2 uM incubated for 24 hrs by PI staining based flow cytometry analysis (reference value: 29.10 %); assay type: functional
[18] = test system: MDA-MB-231; experiment: Induction of cell cycle arrest in human MDA-MB-231 cells assessed as G2/M phase accumulation at 2 uM incubated for 24 hrs PI staining based by flow cytometry analysis (reference value: 27.08 %); assay type: functional
[19] = test system: 4T1; experiment: Induction of cell cycle arrest in mouse 4T1 cells assessed as S phase accumulation at 1 uM incubated for 24 hrs by PI staining based flow cytometry analysis (reference value: 19.43 %); assay type: functional
[20] = test system: MDA-MB-231; experiment: Induction of cell cycle arrest in human MDA-MB-231 cells assessed as increase in G0/G1 phase accumulation incubated for 24 hrs by flow cytometry analysis; assay type: functional, cell-based; conditions: dose 1-2 µM
[21] = test system: 4T1; experiment: Induction of cell cycle arrest in mouse 4T1 cells assessed as increase in p21 expression at 0.25 to 5 uM incubated for 24 hrs by Western blot analysis; assay type: functional, cell-based; conditions: dose 0.25-5 µM
[22] = test system: MDA-MB-231; experiment: Induction of apoptosis in human MDA-MB-231 cells assessed as viable cells at 2.5 uM incubated for 72 hrs by annexinV-FITC and PI staining based flow cytometry analysis (reference value: 90.3 %); assay type: functional; conditions: read-out: Activity
[23] = test system: MDA-MB-231; experiment: Induction of apoptosis in human MDA-MB-231 cells assessed as necrotic cells at 5 uM incubated for 72 hrs by annexinV-FITC and PI staining based flow cytometry analysis (reference value: 0.330 %); assay type: functional
[24] = test system: 4T1; experiment: Induction of apoptosis in mouse 4T1 cells assessed as viable cells at 2.5 uM incubated for 72 hrs by annexinV-FITC and PI staining based flow cytometry analysis (reference value: 91.1 %); assay type: functional; conditions: read-out: Activity
[25] = test system: 4T1; experiment: Induction of apoptosis in mouse 4T1 cells assessed as necrotic cells at 5 uM incubated for 72 hrs by annexinV-FITC and PI staining based flow cytometry analysis (reference value: 5.00 %); assay type: functional
[26] = test system: MDA-MB-231; experiment: Induction of apoptosis in human MDA-MB-231 cells assessed as decrease in Bcl-2 expression incubated for 48 hrs by Western blot analysis; assay type: functional, cell-based; conditions: dose 0.5-10 µM
[27] = test system: MDA-MB-231; experiment: Induction of apoptosis in human MDA-MB-231 cells assessed as effect on Bax expression at 0.5 to 10 uM incubated for 48 hrs by Western blot analysis; assay type: functional, cell-based; conditions: dose 0.5-10 µM
[28] = AUC (0 to infinity) in Sprague-Dawley rat at 20 mg/kg, po measured upto 12 hrs by LC-MS/MS analysis; assay type: ADME, organism-based; parameters: route oral, dose 20 mg/kg, time <=12; conditions: in vivo
[29] = target: Voltage-gated inwardly rectifying potassium channel KCNH2 (Homo sapiens, UniProt Q12809); experiment: Inhibition of human ERG
Chain of Voltage-gated inwardly rectifying potassium channel KCNH2 (Q12809 whole entry): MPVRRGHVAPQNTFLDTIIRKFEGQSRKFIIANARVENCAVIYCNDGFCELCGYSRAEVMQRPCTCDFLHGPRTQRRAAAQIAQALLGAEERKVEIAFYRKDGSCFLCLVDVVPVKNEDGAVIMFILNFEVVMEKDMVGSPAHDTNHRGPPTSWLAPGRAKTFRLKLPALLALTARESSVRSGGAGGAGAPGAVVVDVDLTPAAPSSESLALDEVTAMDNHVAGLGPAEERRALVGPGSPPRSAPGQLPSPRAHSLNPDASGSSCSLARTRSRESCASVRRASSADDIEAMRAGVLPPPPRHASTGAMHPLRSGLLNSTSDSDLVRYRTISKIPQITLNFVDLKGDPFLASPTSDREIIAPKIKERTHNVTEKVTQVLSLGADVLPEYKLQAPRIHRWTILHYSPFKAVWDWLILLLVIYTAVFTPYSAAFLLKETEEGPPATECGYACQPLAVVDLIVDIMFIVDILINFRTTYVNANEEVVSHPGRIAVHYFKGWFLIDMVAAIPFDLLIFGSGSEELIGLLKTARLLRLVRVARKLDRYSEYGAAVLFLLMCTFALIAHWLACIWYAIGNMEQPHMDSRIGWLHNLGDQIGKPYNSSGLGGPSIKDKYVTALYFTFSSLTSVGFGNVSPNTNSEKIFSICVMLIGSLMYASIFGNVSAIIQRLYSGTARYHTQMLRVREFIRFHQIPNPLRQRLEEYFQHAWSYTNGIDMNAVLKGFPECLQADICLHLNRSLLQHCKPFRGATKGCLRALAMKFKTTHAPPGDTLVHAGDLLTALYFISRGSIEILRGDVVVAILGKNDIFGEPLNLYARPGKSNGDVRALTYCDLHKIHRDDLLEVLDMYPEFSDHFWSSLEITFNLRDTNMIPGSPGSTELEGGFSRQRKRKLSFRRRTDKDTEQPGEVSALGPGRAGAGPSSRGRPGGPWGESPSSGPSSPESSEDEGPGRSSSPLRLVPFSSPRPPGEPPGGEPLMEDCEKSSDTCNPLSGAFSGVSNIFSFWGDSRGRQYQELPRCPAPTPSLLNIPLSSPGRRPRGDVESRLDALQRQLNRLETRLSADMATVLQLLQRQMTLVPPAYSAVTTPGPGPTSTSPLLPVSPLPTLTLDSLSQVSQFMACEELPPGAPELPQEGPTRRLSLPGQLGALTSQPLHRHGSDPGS

[30] = Genotoxicity in Salmonella typhimurium TA98 by Ames test; assay type: toxicity; conditions: salmonella enterica subsp. enterica serovar typhimurium
[31] = Genotoxicity in Salmonella typhimurium TA1535 by Ames test; assay type: toxicity; conditions: salmonella enterica subsp. enterica serovar typhimurium
[32] = test system: 4T1; experiment: Antitumor activity against mouse 4T1 cells xenografted in BALB/c mouse assessed as tumor growth inhibition at 50 mg/kg, po administered for 22 days and measured on day 22; assay type: functional, organism-based; conditions: time 22.0 day
[33] = test system: MDA-MB-231; experiment: Antitumor activity against human MDA-MB-231 cells xenografted in nude mouse assessed as tumor growth inhibition at 25 mg/kg, ip administered for 34 days and measured on day 34; assay type: functional, organism-based; conditions: time 34.0 day
[34] = Toxicity in BALB/c mouse xenografted with mouse 4T1 cells assessed as effect on body weight at 20 mg/kg, ip administered for 22 days and measured on day 22; assay type: organism-based; conditions: in vivo, 528 h, time 22 day

CN(C)CCOc1ccc(-c2cc(=O)c3c(O)cc(OCCCCCC(=O)NO)cc3o2)cc1.Cl
IC50 [1]: > 10 µM | IC50 [2]: 0.0255 µM | IC50 [3]: > 10 µM | IC50 [4]: 0.247 µM | IC50 [5]: 2.05 µM | IC50 [6]: 4.13 µM | IC50 [7]: 0.277 µM | IC50 [8]: 1.53 µM | IC50 [9]: 1.16 µM | IC50 [10]: 3.31 µM | IC50 [11]: 2.73 µM | IC50 [12]: 2.32 µM | IC50 [13]: 1.92 µM | IC50 [14]: > 10 µM | Ratio IC50 [15]: 2 | Ratio IC50 [16]: 2 | Activity [17]: 61.9% | Activity [18]: 27.89% | Activity [19]: 30.99% | Activity [20]: Dose-dependent effect | Activity [21]: Active | viability at 2.5 µM [22]: 25.5% | Activity [23]: 0.06% | viability at 2.5 µM [24]: 32.9% | Activity [25]: 0.852% | Activity [26]: Dose-dependent effect | Activity [27]: inactive | AUC(0-inf) [28]: 1640 ng·h/mL | IC50 [29]: 1.2 µM | Activity [30]: Toxic | Activity [31]: Non-Toxic | TGI [32]: Active | TGI [33]: Active | Activity [34]: Non-Toxic
